Source: patent US20220288095A1, “SIALIC ACID FOR USE IN THE TREATMENT OF PSORIASIS” (LifeScience AS, priority 2019, published 2022)

System: psoriasis
Assay: Treatment of an adult with psoriasis with NGNA
Type: in vivo, human
Conditions: compared to previous treatments
Procedure: Example 2. An adult with psoriasis was treated with 5 mg NGNA per day administered sublingually. Administration caused symptoms associated with the psoriasis including redness, scaling spots, itching, burning and soreness to be reduced as compared to previous treatments.
Example 3. An adult with psoriasis was treated with 5 g NGNA per day administered orally. Administration caused symptoms associated with the psoriasis including redness, scaling spots, itching, burning and soreness to be reduced as compared to previous treatments.
Example 4. An adult with psoriasis was treated with NGNA supplied in a hot water bath.
Example 5. An adult with psoriasis was treated with a dermal spray solution of NGNA in water.

Measured: symptoms associated with the psoriasis including redness, scaling spots, itching, burning and soreness

O=C(CO)N[C@H]1[C@H]([C@H](O)[C@H](O)CO)O[C@](O)(C(=O)O)C[C@@H]1O [NGNA, n-glycolylneuraminic acid]
reduced: 5 mg NGNA per day sublingually | 5 g NGNA per day orally | NGNA supplied in a hot water bath | dermal spray solution of NGNA in water
